From patent publication US12077503B2, “Substituted cyclic amides and their use as herbicides” (FMC CORPORATION, priority 2015, dated 2024)

Legend:
Type in all cases: in vivo
[1] = test system: ivy-leaved morning glory (Ipomoea hederacea); assay: Test G Post-Emergence Protocol; conditions: Ipomoea, post-emergence, 312 h; for pest or weed control at 15.625 g/ha: 15.625 g ai/ha, evaluated after 13 days (100=total damage to plant; 0=no damage to plant), read-out: Morningglory, Ivy-leaved damage rating; for pest or weed control at 62.5 g/ha: 62.5 g ai/ha, read-out: Morningglory, Ivy-leaved damage rating (100=total damage to plant; 0=no damage to plant); for pest or weed control at 62.5 g/ha / pest or weed control at 250 g/ha: evaluated after 13 days; for pest or weed control at 250 g/ha: 250 g ai/ha, read-out: damage to plant, Morningglory, Ivy-leaved (100=total damage to plant; 0=no damage to plant)
Outline: (§1)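 Foliar application was made 8 days after sowing, using an aqueous spray of the active in acetone/water (50:50) with 0.5% Tween 20, at doses of 15.625, 62.5 or 250 g/ha. Injury was assessed 13 days later, where 100 meant the plant was fully damaged.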

[2] = test system: barnyardgrass (Echinochloa crus-galli); assay: Test G Post-Emergence Protocol; conditions: Echinochloa crus-galli, post-emergence, 312 h; for pest or weed control at 15.625 g/ha: 15.625 g ai/ha, evaluated after 13 days (100=total damage to plant; 0=no damage to plant), read-out: Barnyardgrass damage rating; for pest or weed control at 62.5 g/ha: 62.5 g ai/ha, read-out: Barnyardgrass damage rating (100=total damage to plant; 0=no damage to plant); for pest or weed control at 62.5 g/ha / pest or weed control at 250 g/ha: evaluated after 13 days; for pest or weed control at 250 g/ha: 250 g ai/ha, read-out: damage to plant, Barnyardgrass (100=total damage to plant; 0=no damage to plant)
Outline: as §1

[3] = test system: velvetleaf (Abutilon theophrasti); assay: Test G Post-Emergence Protocol; conditions: Abutilon theophrasti, post-emergence, 312 h; for pest or weed control at 15.625 g/ha: 15.625 g ai/ha, evaluated after 13 days (100=total damage to plant; 0=no damage to plant), read-out: Velvetleaf damage rating; for pest or weed control at 62.5 g/ha: 62.5 g ai/ha, read-out: Velvetleaf damage rating (100=total damage to plant; 0=no damage to plant); for pest or weed control at 62.5 g/ha / pest or weed control at 250 g/ha: evaluated after 13 days; for pest or weed control at 250 g/ha: 250 g ai/ha, read-out: damage to plant, Velvetleaf (100=total damage to plant; 0=no damage to plant)
Outline: as §1

[4] = test system: corn (Zea mays); assay: Test G Post-Emergence Protocol; conditions: Zea mays, post-emergence, 312 h; for plant injury at 15.625 g/ha: 15.625 g ai/ha, evaluated after 13 days (100=total damage to plant; 0=no damage to plant), read-out: Corn damage rating; for plant injury at 62.5 g/ha: 62.5 g ai/ha, read-out: Corn damage rating (100=total damage to plant; 0=no damage to plant); for plant injury at 62.5 g/ha / plant injury at 250 g/ha: evaluated after 13 days; for plant injury at 250 g/ha: 250 g ai/ha, read-out: damage to plant, Corn (100=total damage to plant; 0=no damage to plant)
Outline: as §1

[5] = test system: redroot pigweed (Amaranthus retroflexus); assay: Test G Post-Emergence Protocol; conditions: Amaranthus retroflexus, post-emergence, 312 h; for pest or weed control at 15.625 g/ha: 15.625 g ai/ha, evaluated after 13 days (100=total damage to plant; 0=no damage to plant), read-out: Pigweed, Redroot damage rating; for pest or weed control at 62.5 g/ha: 62.5 g ai/ha, read-out: Pigweed, Redroot damage rating (100=total damage to plant; 0=no damage to plant); for pest or weed control at 62.5 g/ha / pest or weed control at 250 g/ha: evaluated after 13 days; for pest or weed control at 250 g/ha: 250 g ai/ha, read-out: damage to plant, Pigweed, Redroot (100=total damage to plant; 0=no damage to plant)
Outline: as §1

[6] = test system: giant foxtail (Setaria faberi); assay: Test G Post-Emergence Protocol; conditions: Setaria faberi, post-emergence, 312 h; for pest or weed control at 15.625 g/ha: 15.625 g ai/ha, evaluated after 13 days (100=total damage to plant; 0=no damage to plant), read-out: Foxtail, Giant damage rating; for pest or weed control at 62.5 g/ha: 62.5 g ai/ha, read-out: Foxtail, Giant damage rating (100=total damage to plant; 0=no damage to plant); for pest or weed control at 62.5 g/ha / pest or weed control at 250 g/ha: evaluated after 13 days; for pest or weed control at 250 g/ha: 250 g ai/ha, read-out: damage to plant, Foxtail, Giant (100=total damage to plant; 0=no damage to plant)
Outline: as §1

[7] = test system: ivy-leaved morning glory (Ipomoea hederacea); assay: Test G Pre-Emergence Protocol; conditions: Ipomoea, pre-emergence, 312 h, evaluated after 13 days; for pest or weed control at 15.625 g/ha: 15.625 g ai/ha, read-out: Morning-glory, Ivy-leaved damage rating (100=total damage to plant; 0=no damage to plant); for pest or weed control at 62.5 g/ha: 62.5 g ai/ha, 100=total damage to plant, 0=no damage to plant, read-out: plant damage rating, Morningglory, Ivy-leaved; for pest or weed control at 250 g/ha: 250 g ai/ha, read-out: Morningglory, Ivy-leaved damage rating (100=total damage to plant; 0=no damage to plant)
Outline: (§2)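 One day after sowing, pots are treated with a spray of test compound formulated in acetone/water 50:50 plus 0.5% Tween 20, giving 15.625, 62.5 or 250 g/ha. Evaluation on a 0–100 damage scale follows 13 days of glasshouse growth.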

[8] = test system: barnyardgrass (Echinochloa crus-galli); assay: Test G Pre-Emergence Protocol; conditions: Echinochloa crus-galli, pre-emergence, 312 h, evaluated after 13 days; for pest or weed control at 15.625 g/ha: 15.625 g ai/ha, read-out: Barnyard grass damage rating (100=total damage to plant; 0=no damage to plant); for pest or weed control at 62.5 g/ha: 62.5 g ai/ha, 100=total damage to plant, 0=no damage to plant, read-out: plant damage rating, Barnyardgrass; for pest or weed control at 250 g/ha: 250 g ai/ha, read-out: Barnyardgrass damage rating (100=total damage to plant; 0=no damage to plant)
Outline: as §2

[9] = test system: velvetleaf (Abutilon theophrasti); assay: Test G Pre-Emergence Protocol; conditions: Abutilon theophrasti, pre-emergence, 312 h, evaluated after 13 days; for pest or weed control at 15.625 g/ha: 15.625 g ai/ha; for pest or weed control at 15.625 g/ha / pest or weed control at 250 g/ha: read-out: Velvetleaf damage rating (100=total damage to plant; 0=no damage to plant); for pest or weed control at 62.5 g/ha: 62.5 g ai/ha, 100=total damage to plant, 0=no damage to plant, read-out: plant damage rating, Velvetleaf; for pest or weed control at 250 g/ha: 250 g ai/ha
Outline: as §2

[10] = test system: corn (Zea mays); assay: Test G Pre-Emergence Protocol; conditions: Zea mays, pre-emergence, 312 h, evaluated after 13 days; for plant injury at 15.625 g/ha: 15.625 g ai/ha; for plant injury at 15.625 g/ha / plant injury at 250 g/ha: read-out: Corn damage rating (100=total damage to plant; 0=no damage to plant); for plant injury at 62.5 g/ha: 62.5 g ai/ha, 100=total damage to plant, 0=no damage to plant, read-out: plant damage rating, Corn; for plant injury at 250 g/ha: 250 g ai/ha
Outline: as §2

[11] = test system: redroot pigweed (Amaranthus retroflexus); assay: Test G Pre-Emergence Protocol; conditions: Amaranthus retroflexus, pre-emergence, 312 h, evaluated after 13 days; for pest or weed control at 15.625 g/ha: 15.625 g ai/ha; for pest or weed control at 15.625 g/ha / pest or weed control at 250 g/ha: read-out: Pigweed, Redroot damage rating (100=total damage to plant; 0=no damage to plant); for pest or weed control at 62.5 g/ha: 62.5 g ai/ha, 100=total damage to plant, 0=no damage to plant, read-out: plant damage rating, Pigweed, Redroot; for pest or weed control at 250 g/ha: 250 g ai/ha
Outline: as §2

[12] = test system: giant foxtail (Setaria faberi); assay: Test G Pre-Emergence Protocol; conditions: Setaria faberi, pre-emergence, 312 h, evaluated after 13 days; for pest or weed control at 15.625 g/ha: 15.625 g ai/ha; for pest or weed control at 15.625 g/ha / pest or weed control at 250 g/ha: read-out: Foxtail, Giant damage rating (100=total damage to plant; 0=no damage to plant); for pest or weed control at 62.5 g/ha: 62.5 g ai/ha, 100=total damage to plant, 0=no damage to plant, read-out: plant damage rating, Foxtail, Giant; for pest or weed control at 250 g/ha: 250 g ai/ha
Outline: as §2

| SMILES | pest or weed control at 15.625 g/ha [1] [%] | pest or weed control at 62.5 g/ha [1] [%] | pest or weed control at 250 g/ha [1] [%] | pest or weed control at 15.625 g/ha [2] [%] | pest or weed control at 62.5 g/ha [2] [%] | pest or weed control at 250 g/ha [2] [%] | pest or weed control at 15.625 g/ha [3] [%] | pest or weed control at 62.5 g/ha [3] [%] | pest or weed control at 250 g/ha [3] [%] | plant injury at 15.625 g/ha [4] [%] | plant injury at 62.5 g/ha [4] [%] | plant injury at 250 g/ha [4] [%] | pest or weed control at 15.625 g/ha [5] [%] | pest or weed control at 62.5 g/ha [5] [%] | pest or weed control at 250 g/ha [5] [%] | pest or weed control at 15.625 g/ha [6] [%] | pest or weed control at 62.5 g/ha [6] [%] | pest or weed control at 250 g/ha [6] [%] | pest or weed control at 15.625 g/ha [7] [%] | pest or weed control at 62.5 g/ha [7] [%] | further results |
| --- | --- | --- | --- | --- | --- | --- | --- | --- | --- | --- | --- | --- | --- | --- | --- | --- | --- | --- | --- | --- | --- |
| CN1C[C@H](c2ccc(C(F)(F)F)cc2)[C@@H](C(=O)Nc2ccc(F)c(C(F)(F)F)c2)C1=O (racemic) [Compound 1443] | 0 | 0 | 0 | 0 | 0 | 0 | 0 | 0 | 0 | 0 | 0 | 0 | 0 | 0 | 0 | 0 | 0 | 0 | 0 | 0 | pest or weed control at 250 g/ha [7]: 0%; pest or weed control at 15.625 g/ha [8]: 0%; pest or weed control at 62.5 g/ha [8]: 0%; pest or weed control at 250 g/ha [8]: 0%; pest or weed control at 15.625 g/ha [9]: 0%; pest or weed control at 62.5 g/ha [9]: 0%; pest or weed control at 250 g/ha [9]: 0%; plant injury at 15.625 g/ha [10]: 0%; plant injury at 62.5 g/ha [10]: 0%; plant injury at 250 g/ha [10]: 0%; pest or weed control at 15.625 g/ha [11]: 0%; pest or weed control at 62.5 g/ha [11]: 0%; pest or weed control at 250 g/ha [11]: 0%; pest or weed control at 15.625 g/ha [12]: 0%; pest or weed control at 62.5 g/ha [12]: 0%; pest or weed control at 250 g/ha [12]: 0% |
| CN1C[C@@H](c2ccc(C(F)(F)F)cc2)[C@H](C(=O)Nc2cccc(Cl)n2)C1=O (racemic) [Compound 1606] | 0 | 0 | 30 | 20 | 40 | 50 | 0 | 0 | 60 | 0 | 0 | 0 | 40 | 40 | 100 | 40 | 70 | 80 | 0 | 0 | pest or weed control at 250 g/ha [7]: 10%; pest or weed control at 15.625 g/ha [8]: 0%; pest or weed control at 62.5 g/ha [8]: 20%; pest or weed control at 250 g/ha [8]: 60%; pest or weed control at 15.625 g/ha [9]: 0%; pest or weed control at 62.5 g/ha [9]: 0%; pest or weed control at 250 g/ha [9]: 0%; plant injury at 15.625 g/ha [10]: 0%; plant injury at 62.5 g/ha [10]: 0%; plant injury at 250 g/ha [10]: 10%; pest or weed control at 15.625 g/ha [11]: 0%; pest or weed control at 62.5 g/ha [11]: 0%; pest or weed control at 250 g/ha [11]: 0%; pest or weed control at 15.625 g/ha [12]: 0%; pest or weed control at 62.5 g/ha [12]: 60%; pest or weed control at 250 g/ha [12]: 90% |
